For orientation: mortality means the percentage killed.

Structures are written as SMILES. Like-named read-outs stand apart in the source and are kept apart here.

Assay type in all cases: in vivo
In assay [1] the test system is Silverleaf Whitefly (Bemisia Argentifolii). Kind of assay: Test on controlling effects against silverleaf whitefly (cucumber seedling spray). Conditions: 168 h, hand spray to cucumber seedling, first-second instar nymphs, 7 days after the treatment, 25° C., read-out: protective value. On the procedure: Test on Controlling Effects Against Silverleaf Whitefly (Bemisia Argentifolii) An insecticidal solution prepared to bring the concentration of the compound of the present invention to 200 ppm was applied by a hand spray to cucumber seedling planted in a pot on which first-second instar nymphs of silverleaf whitefly were parasitic, and dried in air. Thereafter, the cucumber seedling was left in a constant temperature chamber at 25° C. with lightening. The number of old instar nymphs was counted 7 days after the treatment, and the protective value (%) was obtained by the following equation. […] Protective value (%)=(1−((Ta×Cb)/(Tb×Ca)))×100 Ta: The number of old instar nymphs after the treatment at the treated cucumber seedling Tb: The number of first-second instar nymphs before the treatment at the treated cucumber seedling Ca: The number of old instar nymphs after the treatment at the untreated cucumber seedling Cb: the number of first-second instar nymphs before the treatment at the untreated cucumber seedling

Assay [2] concerns Brown Planthopper (Nilaparvata lugens). Description: Test on controlling effects against brown planthopper (rice seedling dip). From the text:
Test on Controlling Effects Against Brown Planthopper (Nilaparvata lugens)
Rice seedling was dipped for about 10 seconds in an insecticidal solution prepared to bring the concentration of the compound of the present invention to 200 ppm and then dried in air, its root was wrapped with a wet absorbent cotton, and the seedling was put into a test tube. Then, 10 second-third instar nymphs of Brown Planthopper were released therein, and the test tube was covered with a gauze and left in a constant temperature chamber at 25° C. with lightening. On the 5th day after the release, dead nymphs were counted, and the mortality was calculated by the following equation.

Assay [3] deals with Green Peach Aphid (Myzus persicae). Description: Test on controlling effects against green peach aphid (leaf dip). Conditions: foliar, 120 h, Japanese radish leaf dipped about 10 seconds, first instar nymphs, 5 days after the treatment, 25° C. The source says:
Test on Controlling Effects Against Green Peach Aphid (Myzus persicae)
A Japanese radish leaf was inserted in a test tube in which water was put, and about 20 first instar nymphs of green peach aphid were released on the leaf. On the next day, the number of nymphs parasitic on the leaf was counted, and then the leaf was dipped for about 10 seconds in an insecticidal solution prepared to bring the concentration of the compound of the present invention to 200 ppm, dried in air and left in a constant temperature chamber at 25° C. with lightening. Dead nymphs were counted 5 days after the treatment, and the mortality was calculated by the following equation. The insects dropped from the leaf or presented toxic symptom were counted as dead insects. […] Mortality (%)=(1−(number of survived insects/number of treated insects))×100

Where [4] appears, read: 200 ppm, rice seedling dipped about 10 seconds, second-third instar nymphs, 5th day after the release, 25° C., read-out: mortality.

Consider `Fc1cc(C(F)(F)F)cnc1-c1ccnc2ncnn12` [compound 5], for which the pest or weed control at 200 ppm in assay [1] was at least 80%.
Consider `O=[N+]([O-])c1cc(C(F)(F)F)cnc1-c1ccnc2ncnn12` [compound 12], for which, in assay [2] (setting [4]), the mortality at 200 ppm was at least 90%. The pest or weed control at 200 ppm in assay [1] was at least 80%.
As to `N#Cc1cc(C(F)(F)F)cnc1-c1ccnc2ncnn12` [compound 14], the pest or weed control at 200 ppm in assay [1] is at least 80%.
Regarding `Cc1cc(-c2ncc(C(F)(F)F)cc2Br)n2ncnc2n1` [compound 15], the mortality at 200 ppm in assay [3] and in assay [2] (setting [4]) was at least 90% in each case. Moreover, the pest or weed control at 200 ppm in assay [1] was at least 80%.
As to `CCCc1cc(-c2ncc(C(F)(F)F)cc2Cl)n2ncnc2n1` [compound 17], the mortality at 200 ppm in assay [3] and in assay [2] (setting [4]) was at least 90% throughout. For the same compound, in assay [1], the pest or weed control at 200 ppm was at least 80%.
Consider `Cc1cc(-c2ccc(C(F)(F)F)cn2)n2ncnc2n1` [compound 18], for which the mortality at 200 ppm in assay [3] was at least 90%. In addition, in assay [1], the pest or weed control at 200 ppm was at least 80%.
As to `Cc1cc(-c2ncc(C(F)(F)F)cc2I)n2ncnc2n1` [compound 41], the mortality at 200 ppm in assay [3] and in assay [2] (setting [4]) was at least 90% each time.
For the compound `Cc1cc(-c2ncc(C(F)(F)F)cc2C#N)n2ncnc2n1` [compound 43], the mortality at 200 ppm in assay [3] and in assay [2] (setting [4]) was at least 90% each time.
On to `Cc1cc(-c2ncc(C(F)(F)F)cc2C)n2ncnc2n1` [compound 44], for which the mortality at 200 ppm in assay [3] and in assay [2] (setting [4]) was at least 90% throughout. In addition, the pest or weed control at 200 ppm in assay [1] was at least 80%.
In assay [3], `Cc1cc(-c2cc(C(F)(F)F)cc(C(F)(F)F)n2)n2ncnc2n1` [compound 51] gave a mortality at 200 ppm of at least 90%.
For `Cc1cc(-c2ncc(C(F)(F)F)cc2-c2ccccc2)n2ncnc2n1` [compound 52], the mortality at 200 ppm in assay [2] (setting [4]) is at least 90%.
Still for that read-out and setting: the value for `Cc1cc(-c2ncc(Cl)cc2C(F)(F)F)n2ncnc2n1` [compound 57] was at least 90%.
As for `Cc1cc(-c2nc(Cl)c(C(F)(F)F)cc2Cl)n2ncnc2n1` [compound 68], the mortality at 200 ppm in assay [3] and in assay [2] (setting [4]) was at least 90% throughout.
For `N#Cc1cc(-c2ncc(C(F)(F)F)cc2Cl)n2ncnc2n1` [compound 70], the mortality at 200 ppm in assay [2] (setting [4]) was at least 90%.
In turn, `Cc1cc(-c2ncc(C(F)(F)F)cc2[N+](=O)[O-])n2ncnc2n1` [compound 78] returned a mortality at 200 ppm in assay [3] of at least 90%.
With `CCc1cc(C(F)(F)F)cnc1-c1cc(C)nc2ncnn12` [compound 79], the mortality at 200 ppm in assay [3] and in assay [2] (setting [4]) was at least 90% each time.
With `CC(C)c1cc(-c2ncc(C(F)(F)F)cc2Cl)n2ncnc2n1` [compound 80], the mortality at 200 ppm in assay [3] and in assay [2] (setting [4]) was at least 90% in each case. The pest or weed control at 200 ppm in assay [1] was at least 80%.
For the compound `CCCCc1cc(-c2ncc(C(F)(F)F)cc2Cl)n2ncnc2n1` [compound 83], in assay [2] (setting [4]), the mortality at 200 ppm was at least 90%.
The same measure, in the same setting: the value for `CC(C)(C)c1cc(-c2ncc(C(F)(F)F)cc2Cl)n2ncnc2n1` [compound 89] was at least 90%.
Consider `FC(F)(F)c1cnc(-c2cc(-c3ccco3)nc3ncnn23)c(Cl)c1` [compound 91], for which, in assay [2], the mortality at 200 ppm was at least 90%.
Consider `FC(F)(F)c1cnc(-c2cc(C3CC3)nc3ncnn23)c(Br)c1` [compound 94], for which the mortality at 200 ppm in assay [3] and in assay [2] (setting [4]) was at least 90% each time. In addition, the pest or weed control at 200 ppm in assay [1] was at least 80%.
Take `CC1(c2cc(-c3ncc(C(F)(F)F)cc3Cl)n3ncnc3n2)CC1` [compound 98]: the mortality at 200 ppm in assay [2] (setting [4]) was at least 90%.
Same read-out and setting: the value for `FC(F)(F)c1cnc(-c2cc(C3CCC3)nc3ncnn23)c(Cl)c1` [compound 99] was at least 90%; that for `Cc1cc(-c2nc(Cl)c(C(F)(F)F)cc2F)n2ncnc2n1` [compound 105] was at least 90%; that for `FC(F)(F)c1cnc(-c2cc(C3CCCC3)nc3ncnn23)c(Cl)c1` [compound 107] was at least 90%.
Turning to `FC(F)(F)c1cnc(-c2ccnc3ncnn23)c(Br)c1` [compound No. 4, 7-(3-bromo-5-(trifluoromethyl)pyridin-2-yl)-[1,2,4]triazolo[1,5-a]pyrimidine], the mortality at 200 ppm in assay [3] and in assay [2] (setting [4]) was at least 90% each time. In assay [1], the pest or weed control at 200 ppm was at least 80%.
With `CCc1cc(-c2ncc(C(F)(F)F)cc2Cl)n2ncnc2n1` [compound No. 16, 7-(3-chloro-5-(trifluoromethyl)pyridin-2-yl)-5-ethyl-[1,2,4]triazolo[1,5-a]pyrimidine], the mortality at 200 ppm in assay [3] and in assay [2] (setting [4]) was at least 90% each time. Moreover, in assay [1], the pest or weed control at 200 ppm is at least 80%.
As to `Cc1cc(-c2ncc(C(F)(F)F)cc2Cl)n2ncnc2n1` [compound No. 19, 7-(3-chloro-5-(trifluoromethyl)pyridin-2-yl)-5-methyl-[1,2,4]triazolo[1,5-a]pyrimidine], the mortality at 200 ppm in assay [3] and in assay [2] (setting [4]) was at least 90% throughout. Also, the pest or weed control at 200 ppm in assay [1] was at least 80%.
Take `FC(F)(F)c1cnc(-c2cc(C(F)(F)F)nc3ncnn23)c(Cl)c1` [compound No. 20, 7-(3-chloro-5-(trifluoromethyl)pyridin-2-yl)5-(trifluoromethyl)-[1,2,4]triazolo[1,5-a]pyrimidine]: the mortality at 200 ppm in assay [3] and in assay [2] (setting [4]) was at least 90% throughout. The pest or weed control at 200 ppm in assay [1] was at least 80%.
On to `FC(F)(F)c1cnc(-c2cc(C3CC3)nc3ncnn23)c(Cl)c1` [compound No. 82, 7-(3-chloro-5-(trifluoromethyl)pyridin-2-yl)-5-cyclopropyl-[1,2,4]triazolo[1,5-a]pyrimidine], for which the mortality at 200 ppm in assay [3] and in assay [2] (setting [4]) was at least 90% in each case. In assay [1], the pest or weed control at 200 ppm was at least 80%.
On to `CC(C)c1cc(-c2ncc(C(F)(F)F)cc2Br)n2ncnc2n1` [compound No. 95, 7-(3-bromo-5-(trifluoromethyl)pyridin-2-yl)-5-isopropyl-[1,2,4]triazolo[1,5-a]pyrimidine], for which the mortality at 200 ppm in assay [3] and in assay [2] (setting [4]) was at least 90% throughout.

These data come from US8124760B2, “Pyridyl-triazolopyrimidine derivative or its salt, pesticide containing it and its production process” (Ishihara Sangyo Kaisha, Ltd., priority 2007, dated 2012).
